Patent US6743609B1, “Linoleate isomerase” (Arkion Life Sciences LLC, priority 1997, dated 2004)

Tests used:
[1] = test system: P. acnes ATCC 6919 linoleate isomerase; assay: Effect of cofactors, metals, chelators and sulfhydryl reagents on isomerase activity of crude soluble enzyme preparation; type: biochemical, Propionibacterium acnes; details: for effect of possible cofactor on isomerase activity: 60 minute assays
Procedure: A number of possible cofactors were tested for their effect on isomerase activity, including NAD, NADH, NADP, NADPH, FAD, FMN, ADP, ATP and glutathione.
(§1) Generally, the isomerase was assayed using an endpoint assay after 30 to 60 minutes incubation at room temperature. FIG. 18 (time course assay at different linoleic acid levels) and FIG. 19 (end point assay at different linoleic acid levels) show the effect of increasing substrate concentration on formation of […].

[2] = test system: Lactobacillus reuteri PYR8 9,11 linoleate isomerase (whole cells); assay: Whole-cell biotransformation of linoleic acid, effect of product and substrate on isomerase; type: cell-based; details: 700 ppm CLA from recycled reaction broth, 1000 ppm linoleic acid
Excerpt: The following example describes the determination of conditions to improve enzyme stability and performance and on testing the limitations of the biotransformation process. Whole cells of L. reuteri PYR8 were used in all biotransformation experiments described below.
The effect of substrate and product on the enzyme performance was also investigated, as well as the possibility of recycling the cells. The effect of CLA on the reaction was studied by adding different concentrations of either a mixture of isomers (Sigma material, approximately 41% 9,11 isomer and 48% 10,12 CLA), or just 9,11 CLA (Matreya material, approximately 77% 9,11 CLA). Concentrations from 500 to 3000 ppm were tested. Some experiments were also performed recycling the broth from a previous biotransformation reaction with L. reuteri PYR8, resulting in an initial CLA concentration around 700 ppm. In every case, 1000 ppm linoleic acid were added. […] In the same period, almost complete conversion of the linoleic acid was obtained in the control without exogenous CLA. However, the effect was not detected when the CLA present came from recycled reaction broth. […] The results may indicate that some of the impurities present in the chemically produced CLA may be stronger inhibitors of the 9,11 isomerase than the product itself. […]

[3] = test system: C. sporogenes ATCC 25762 linoleate isomerase; assay: Effect of additives, buffer components and detergents on C. sporogenes isomerase activity; type: biochemical, Clostridium sporogenes
Procedure: It has been reported that solubilization in the presence of lysophosphatidylcholine (LPC) allows higher detergent concentrations to be used, thus allowing more complete membrane protein solubilization. CaCl2 can activate enzymes, such as some nucleases.
A third nonionic detergent, octyl glucoside (OG) was tested for its ability to solubilize the C. sporogenes linoleate isomerase.

L. reuteri PYR8 = assay: Whole cell biotransformation of linoleic acid to CLA; type: cell-based, Lactobacillus reuteri; details: for (cis,trans)-9,11-CLA formation on addition of nonionic detergent: detergents added to 0.1-0.5% final concentration
Procedure: Cultures were grown and harvested as described above. Washed cells were resuspended in either fresh growth medium or 0.1 M Tris pH 8.0 buffer containing linoleic acid at various concentrations.
Samples were taken at appropriate intervals and analyzed for CLA as described in Example 2. In some experiments, various detergents were added to 0.1-0.5% final concentration. […] About 5 mL solvent was added to about 20 mL aqueous cell suspension in a 125 mL baffled shake flask incubated at room temperature.
Linoleic acid was added as 99% LA, dissolved in propyleneglycol (100 mg/ml solution) or emulsified with 0.5, 5 or 30% lecithin. The emulsion was prepared by blending the linoleic acid and the lecithin with the reaction medium before the addition of the cells. Linoleic acid was added at 1000 and 2000 ppm.
In the second experiment, cell recycle was studied with cells that have performed the biotransformation at different levels of linoleic acid. Cells were harvested, resuspended in breakage buffer at a 10-fold concentration, and linoleic acid was added at 1000, 1500, 2000, 2500 and 3000 ppm level. Given the higher linoleic acid concentration, the reaction was allowed to proceed for six hours. […] 1000 ppm linoleic acid were added and the reaction was followed for four hours.

9,11 linoleate isomerase = assay: Test of possible inducers of the 9,11 linoleate isomerase in the growth medium; type: cell-based, Lactobacillus reuteri; details: 100 mg/l in the growth medium
Procedure: Several substances were tested as possible inducers of the 9,11 linoleate isomerase. The materials tested included: lauric acid, myristic acid, palmitic acid, palmitoleic acid, oleic acid, linoleic acid, linolenic acid, oleic acid stearyl ester, linoleyl alcohol, linoleic acid methyl ester, linoleic acid ethyl ester, stearic acid and linoleic acid methyl ester. They were added to the growth medium at a 100 mg/l level.

[4] = test system: Clostridium sporogenes ATCC 25762 linoleate isomerase; assay: Linoleate isomerase activity versus linoleic acid concentration; type: biochemical; details: tested from 0 to 100 ppm, FIG. 26
Procedure: (§2) About 50 to about 250 μL of enzyme sample was added to 1.5 mL of enzyme assay buffer for reaction. About 1 to about 2 mL of aqueous phase was separated from the enzyme reaction and was extracted with about 3 mL of hexane. […] Depending on the level of activity, assay mixtures of chromatography fractions were incubated at room temperature from about 1 to about 24 hours before extraction with hexane.
Temperature optimization with crude extracts was carried out at 4° C., room temperature (˜25° C.) and 37° C. The best temperature for the isomerase activity was room temperature (FIG. 25). The isomerase activity decreased to 73% of optimum at 4° C. and 63% of optimum at 37° C.
The concentration of linoleic acid was tested from 0 to 100 ppm (FIG. 26). The optimum concentration for linoleic add was determined to be 40 ppm.

[5] = target: T1, Propionibacterium acnes ATCC 6919 linoleate isomerase (10,12-linoleate isomerase) (Cutibacterium acnes, UniProt Q6A8X5); assay: Linoleate isomerase activity in crude soluble extract, effect of cofactors, chelators, sulfhydryl reagents and substrate level; type: biochemical; details: increasing linoleic acid levels, FIGS. 18 and 19
T1 construct: gene not cloned in this document
Procedure: as §2
Enzyme extracts were prepared by French Press and the extract fractionated as outlined in FIG. 15. Taking the total isomerase activity in fraction A as 100%, over 93% of the activity was detected in the soluble protein fraction (B) Less than 1% of the isomerase activity was found in the washed pellet, or membrane fraction (C). Approximately 2% of the activity was located in the buffer fraction (D), after the pellet washing and centrifugation steps. Thus, the P. acnes isomerase clearly is not a membrane protein, unlike the isomerase activities in L. reuteri PYR8 and other strains examined to date.
Calcium and magnesium also had no effect.
as §1

[6] = test system: isolated linoleate isomerase (source organism not stated with the values); assay: Michaelis-Menten kinetics of isolated linoleate isomerase (linoleic acid substrate, oleic acid inhibition)
linoleate isomerase = type: biochemical; details: pH optimum of about 7.5

T1 sequence (Q6A8X5 entry or part of it): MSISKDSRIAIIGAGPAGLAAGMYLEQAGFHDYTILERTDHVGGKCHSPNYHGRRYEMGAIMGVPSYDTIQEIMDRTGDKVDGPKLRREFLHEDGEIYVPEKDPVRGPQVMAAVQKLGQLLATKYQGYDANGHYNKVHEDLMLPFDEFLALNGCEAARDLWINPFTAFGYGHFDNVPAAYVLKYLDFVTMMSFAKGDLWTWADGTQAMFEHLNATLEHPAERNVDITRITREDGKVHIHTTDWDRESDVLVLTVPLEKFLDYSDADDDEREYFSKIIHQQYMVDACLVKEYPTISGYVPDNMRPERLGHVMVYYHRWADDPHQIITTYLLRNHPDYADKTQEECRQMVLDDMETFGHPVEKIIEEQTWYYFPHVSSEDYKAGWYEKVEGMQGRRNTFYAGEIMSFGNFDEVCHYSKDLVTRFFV

In the case of c1cnc2c(c1)ccc1cccnc12 [1,10-phenanthroline], the “inhibition of isomerase activity” value ([1]; 1 mM) is reported as “not inhibited”.

In the case of Nc1ncnc2c1ncn2[C@@H]1O[C@H](COP(=O)(O)OP(=O)(O)O)[C@@H](O)[C@H]1O [ADP], the “effect of possible cofactor on isomerase activity” value (from here on “effect of possible cofactor”) [1] is reported as “No significant effect”.

With CCCCCC/C=C/C=C\CCCCCCCC(=O)O [CLA] the “effect of CLA from recycled reaction broth on conversion rate” value [2] was “no difference in conversion rate”.

In the case of [Ca+2].[Cl-].[Cl-] [CaCl2], the “effect on enzyme activity” value ([3]; Tris and phosphate buffer systems) is reported as “decreased the enzyme activity” and the “effect on enzyme activity” value ([3]; temperatures higher than 37° C.) is reported as “no effect on the activity”.

With [Ca] [Calcium] the “effect of metal on isomerase activity” value [1] was “no effect”.

In the case of Cc1cc2nc3c(=O)[nH]c(=O)nc-3n(C[C@H](O)[C@H](O)[C@H](O)COP(=O)(O)OP(=O)(O)OC[C@H]3O[C@@H](n4cnc5c(N)ncnc54)[C@H](O)[C@@H]3O)c2cc1C [FAD], the “effect of possible cofactor” value [1] is reported as “No significant effect”.

Cc1cc2nc3c(=O)[nH]c(=O)nc-3n(C[C@H](O)[C@H](O)[C@H](O)COP(=O)(O)O)c2cc1C [FMN] was tested, and the “effect of possible cofactor” value [1] was “No significant effect”.

CCN1C(=O)C=CC1=O [N-ethylmaleimide] was tested, and the “inhibition of isomerase activity” value ([1]; 100 μM) was “not inhibited”.

NC(=O)C1=CN([C@@H]2O[C@H](COP(=O)(O)OP(=O)(O)OC[C@H]3O[C@@H](n4cnc5c(N)ncnc54)[C@H](O)[C@@H]3O)[C@@H](O)[C@H]2O)C=CC1 [NADH] was tested, and the “effect of possible cofactor” value [1] was “No significant effect”.

NC(=O)C1=CN([C@@H]2O[C@H](COP(=O)(O)OP(=O)(O)OC[C@H]3O[C@@H](n4cnc5c(N)ncnc54)[C@H](OP(=O)(O)O)[C@@H]3O)[C@@H](O)[C@H]2O)C=CC1 [NADPH] was tested, and the “effect of possible cofactor” value [1] was “No significant effect”.

NC(=O)c1ccc[n+]([C@@H]2O[C@H](COP(=O)([O-])OP(=O)(O)OC[C@H]3O[C@@H](n4cnc5c(N)ncnc54)[C@H](OP(=O)(O)O)[C@@H]3O)[C@@H](O)[C@H]2O)c1 [NADP] was tested, and the “effect of possible cofactor” value [1] was “No significant effect”.

NC(=O)c1ccc[n+]([C@@H]2O[C@H](COP(=O)([O-])OP(=O)(O)OC[C@H]3O[C@@H](n4cnc5c(N)ncnc54)[C@H](O)[C@@H]3O)[C@@H](O)[C@H]2O)c1 [NAD] was tested, and the “effect of possible cofactor” value [1] was “No significant effect”.

For CCCCCCCCO[C@@H]1O[C@H](CO)[C@@H](O)[C@H](O)[C@H]1O [OG, octyl glucoside], the “isomerase specific activity higher than that of OTGP solubilized isomerase” value ([3]; 1.5% (2×critical micelle concentration)) was “about 20%”.

For CCCCCCCC/C=C\CCCCCCCC(=O)OCCOCC(OCCO)C1OCC(OCCO)C1OCCO (stereo not shown) [Tween-80], the “(cis,trans)-9,11-CLA formation on addition of nonionic detergent” value (L. reuteri PYR8) was “does not significantly increase”.

In the case of N[C@@H](CCC(=O)N[C@@H](CS)C(=O)NCC(=O)O)C(=O)O [glutathione], the “effect of possible cofactor” value [1] is reported as “No significant effect”.

In the case of OCC(O)CO [glycerol], the “increase in activity on increasing the concentration” value ([3]; extraction buffer) is reported as 30%.

For CCCCCCCCCCCC(=O)O [lauric acid], the “effect as inducer on expression and/or activity of the isomerase” value (“effect as inducer” for short) (9,11 linoleate isomerase) was “No positive effect”.

In the case of CCCCC/C=C\C/C=C\CCCCCCCC(=O)OCC [linoleic acid ethyl ester], the “effect as inducer” value (9,11 linoleate isomerase) is reported as “No positive effect”.

For CCCCC/C=C\C/C=C\CCCCCCCC(=O)OC [linoleic acid methyl ester], the “effect as inducer” value (9,11 linoleate isomerase) was “No positive effect”.

In the case of CCCCC/C=C\C/C=C\CCCCCCCC(=O)O [linoleic acid, (cis,cis)-9,12-linoleic acid], the “optimum concentration for linoleic acid” value [4] is reported as 40 ppm, the “effect as inducer” value (9,11 linoleate isomerase) is reported as “No positive effect” and the “substrate inhibition by linoleic acid” value [5] is reported as “not subject to the same type of substrate inhibition”. For the same molecule, the substrate inhibition (L. reuteri PYR8; up to 3000 ppm linoleic acid, cells 10-fold concentrated in breakage buffer) was “no substrate inhibition was detected”, the “linoleic acid concentration at which initial velocity decreases” value [6] was “about 60 μM” and the Km (linoleate isomerase; read-out: Km for linoleic acid) was roughly 8.1 µM.

With CCCCC/C=C\C/C=C\CCCCCCCCO [linoleyl alcohol] the “effect as inducer” value (9,11 linoleate isomerase) was “No positive effect”.

In the case of [Mg] [magnesium], the “effect of metal on isomerase activity” value [1] is reported as “no effect”.

CCCCCCCCCCCCCC(=O)O [myristic acid] was tested, and the “effect as inducer” value (9,11 linoleate isomerase) was “No positive effect”.

In the case of CCCCCCCC/C=C\CCCCCCCC(=O)OCCCCCCCCCCCCCCCCCC [oleic acid stearyl ester], the “effect as inducer” value (9,11 linoleate isomerase) is reported as “No positive effect”.

For CCCCCCCC/C=C\CCCCCCCC(=O)O [oleic acid], the “effect as inducer” value (9,11 linoleate isomerase) was “No positive effect” and the Ki (linoleate isomerase; read-out: Ki for oleic acid) was roughly 80 µM.

With O=C(O)c1cc[c]([Hg][Cl])cc1 [p-chloromercuribenzoate] the “inhibition of isomerase activity” value ([1]; 5 μM) was “not inhibited”.

With CCCCCCCCCCCCCCCC(=O)O [palmitic acid] the “effect as inducer” value (9,11 linoleate isomerase) was “No positive effect”.

In the case of CCCCCC/C=C\CCCCCCCC(=O)O [palmitoleic acid], the “effect as inducer” value (9,11 linoleate isomerase) is reported as “No positive effect”.

With CCCCCCCCCCCCCCCCCC(=O)O [stearic acid] the “effect as inducer” value (9,11 linoleate isomerase) was “No positive effect”.

For Triton X-100, the “(cis,trans)-9,11-CLA formation on addition of nonionic detergent” value (L. reuteri PYR8) was “does not significantly increase”.
